≈ marks a conversion by molar mass, not a printed value. Read-outs that look alike come from different tables or passages of the source.

Data set [1] deals with CD3/IL2 stimulated PBMC cells. As to the kind of experiment: IFNγ release from CD3/IL2 stimulated PBMC cells (assay (a)). The format is cell-based. The conditions noted are these: Homo sapiens, CD3/IL2 stimulation, 48 h, ELISA. As for the experimental part: (a) IFNγ Release from CD3/IL2 Stimulated PBMC Cells
PBMCs from healthy subjects are separated from whole blood using a density gradient (Lymphoprep, Axis-Shield Healthcare). Cells are added to a 96 well plate, and compound at the desired concentration added 2 hours prior to stimulation with a mixture of monoclonal antibody to CD3 (1 μg/ml, eBioscience) and human recombinant IL2 (10 ng/ml, Peprotech). After 48 hours incubation under normal tissue culture conditions, supernatants are collected and IFNγ release determined by Sandwich ELISA (Duo-set, R&D System). The IC50 is determined from the dose response curve.
In general terms: An ELISA detects its analyte on a solid surface through an enzyme-linked reagent.

Data set [2] has as its system Jurkat cells. The data set can be described thus: Cell cytotoxicity assay in Jurkat cells (assay (c)). The class given is cell-based, human. The settings on record: 24 h, propidium iodide, normalised to DMSO control. As for the experimental part: (c) Cell Cytotoxicity Assay
1×10^5 Jurkat cells (immortalised human T lymphocytes) are added to the appropriate number of wells of a 96 well plate in 100 μL of media (RPMI supplemented with 10% foetal bovine serum). 1 μL of DMSO control (final concentration 1.0% v/v) or test compound (final concentration 20, 5 or 1 μg/mL) is added to the wells and incubated at 37° C., 5% CO2. After 24 hours, the plate is centrifuged at 1200 rpm for 3 minutes and the supernatant discarded. Cells are then resuspended in 150 μL (final concentration 7.5 μg/mL) of propidium iodide (PI) in PBS and incubated at 37° C., 5% CO2 for 15 minutes. After 15 minutes, cells are analysed by flow cytometry (BD accuri) using the FL3 window. The % viability is calculated as the % of cells that are PI negative in the test wells normalised to the DMSO control.

The nature of data set [3]: Solubility in fasted-state simulated colonic fluid (FaSSCoF) at pH 6.5. The class given is physicochemical. The settings on record: 25 °C, pH 6.5, fassgf or other biorelevant, thermodynamic from solid, pH 6.5, 25° C. As for the experimental part: The solubilities of compounds of the invention in FaSSCoF at pH 6.5 are determined using a modification of a previously-reported procedure (Vertzoni, M., et al. Pharm. Res. 2010, 27, 2187-2196). In place of the bile salt extract employed in the original procedure (which extract is no longer available), the modified procedure uses a mixture of sodium taurochlorate (0.15 g), glycocholic acid (0.15 g), ursodeoxycholic acid (0.05 g), cholic acid (0.05 g), and glycodeoxycholic acid (0.05 g). These five bile acids are ground together with a mortar and pestle to produce a fine white powder that is incorporated into the FaSSCoF, as outlined below.
Tris(hydroxymethyl)aminomethane (Tris; 0.275 g) and maleic acid (0.44 g) are dissolved in water (35 mL) to give a solution whose pH is adjusted to 6.5 by treatment with 0.5M NaOH (ca. 12 mL). The solution is then made up to 50 mL with water. A portion of this Tris/maleate buffer solution (ca. 25 mL) is added to a 0.5 L round-bottomed flask, before being treated with 0.00565 g of the bile acid mixture described above. Solutions of phosphatidylcholine (0.0111 g) in DCM (0.15 mL) and palmitic acid (0.0013 g) in DCM (0.15 mL) are added, then the organic solvent is evaporated off under reduced pressure at 40° C. until a clear solution, with no perceptible DCM odour, is achieved. The volume of the evaporated solution is adjusted to 50 mL by addition of the remainder of Tris/maleate buffer, then BSA (0.115 g) is added, before being dissolved by gentle agitation.
Test compounds are suspended in the pH 6.5 FaSSCoF medium to give a maximum final concentration of 2-10 mg/mL. The suspensions are equilibrated at 25° C. for 24 h, before being filtered through a glass fibre C filter. The filtrates are then diluted as appropriate for injection and quantification by HPLC with reference to a standard. Different volumes of the standard, diluted and undiluted sample solutions are injected and the solubilities are calculated using the peak areas determined by integration of the peak found at the same retention time as the principal peak in the standard injection.

A short description of data set [4]: Systemic pharmacokinetics and total colon tissue distribution after single oral administration in mice. The settings on record: oral 10 mg/kg. The class given is in vivo, male C57BL/6 mice. As for the experimental part:
Studies were conducted by Sai Life Sciences (Hinjewadi, Pune, India) to investigate the systemic pharmacokinetics and total colon tissue distribution of compounds of the invention following a single oral administration in male C57BL/6 mice.
A group of twenty four male mice were administered with a solution of test compound formulated at a dose of 10 mg/10 mL/kg in aqueous hydroxypropyl-β-cyclodextrin (20% w/v in water). Blood samples (approximately 60 μL) were collected from retro-orbital plexus of each mouse under light isoflurane anaesthesia such that the samples were obtained at 0.5, 1, 2, 4, 6, 8, 12 and 24 hr. The blood samples were collected from a set of three mice at each time point in a labeled micro centrifuge tube containing K2EDTA as anticoagulant. Plasma samples were separated by centrifugation at 4000 rpm for 10 min and stored below −70° C. until bioanalysis. After collection of blood sample, animals were humanely euthanized by carbon dioxide asphyxiation to collect total colon tissues. The colons were flushed with cold PBS (pH7.4) to remove contents. The total colon tissues were homogenized with cold PBS (pH7.4) of twice the weight of colon tissue and stored below −70° C. Total volume was three times the total colon tissue weights. All samples were processed for analysis by protein precipitation using acetonitrile and analyzed with a fit-for-purpose LC-MS/MS method. Pharmacokinetic parameters were calculated using the non-compartmental analysis tool of Phoenix WinNonlin® (Version 6.3).

Where [5] appears, read: Run 1, read-out: pH 6.5 FaSSCoF Solubility Run 1.
[6] abbreviates: Run 2, read-out: pH 6.5 FaSSCoF Solubility Run 2.

As a reminder, the IC50 is the concentration that inhibits the measured activity by half. A lower IC50 goes with higher potency. The term Cmax denotes the peak of the concentration-time curve. The compound `CCc1cc(O)c(F)cc1-c1ccc2c(-c3nc4c([nH]3)CCN(C(=O)c3cnc(N5CCCCC5)cn3)C4)n[nH]c2c1` [Reference Compound, reference compound] registered an IC50 in data set [1] of 81.3 nM. Further, the “% viability at 1 μg/mL” value in data set [2] is 49%. In addition, the solubility thermodynamic at 24 h in data set [3] (setting [5]) and in data set [3] (setting [6]) was 6 µg/mL (≈ 10.6 µM) in each case. The AUC(0-t) in data set [4] (male, C57BL/6, mouse, plasma, read-out: AUC0-24 h P (plasma)) was determined as 368 ng·h/mL. The Cmax in data set [4] (male, C57BL/6, mouse, plasma, read-out: Cmax P (plasma)) is 114 ng/mL; in data set [4] (male, C57BL/6, mouse, total colon tissue, total colon, read-out: Cmax C (total colon)) it was 3230 ng/g. For the same compound, the “AUC0-24 h C (total colon)” value in data set [4] (total colon) was 43,739 h · ng/g.

In the case of `CCc1cc(O)c(F)cc1-c1ccc2c(-c3nc4c([nH]3)CCN(C(=O)c3cnc(N5CCC[C@H]5CO)cn3)C4)n[nH]c2c1` [Example 2(h), (S)-(2-(6-(2-ethyl-5-fluoro-4-hydroxyphenyl)-1H-indazol-3-yl)-1,4,6,7-tetrahydro-5H-imidazo[4,5-c]pyridin-5-yl)(5-(2-(hydroxymethyl)pyrrolidin-1-yl)pyrazin-2-yl)methanone], 12.1 nM corresponded to half-maximal inhibition in data set [1] (IC50). In addition, the “% viability at 1 μg/mL” value in data set [2] came to 56%. For the same compound, the solubility thermodynamic at 24 h in data set [3] (setting [5]) was 30 µg/mL (≈ 51.5 µM); in data set [3] (setting [6]), 40 µg/mL (≈ 68.7 µM).

In data set [1], `CCc1cc(O)c(F)cc1-c1ccc2c(-c3nc4c([nH]3)CCN(C(=O)c3cnc(N(C)C5CCN(C)CC5)cn3)C4)n[nH]c2c1` [Example 1, (2-(6-(2-Ethyl-5-fluoro-4-hydroxyphenyl)-1H-indazol-3-yl)-1,4,6,7-tetrahydro-5H-imidazo[4,5-c]pyridin-5-yl)(5-(methyl(1-methylpiperidin-4-yl)amino)pyrazin-2-yl)methanone] showed an IC50 of 22.6 nM. In addition, the “% viability at 1 μg/mL” value in data set [2] was 14%. In addition, the solubility thermodynamic at 24 h in data set [3] (setting [5]) and in data set [3] (setting [6]) was 10 µg/mL (≈ 16.4 µM) throughout.

Take `CCc1cc(O)c(F)cc1-c1ccc2c(-c3nc4c([nH]3)CCN(C(=O)c3cnc(N5C[C@H]6CN(C)C[C@H]6C5)cn3)C4)n[nH]c2c1` [Example 2(t), (2-(6-(2-ethyl-5-fluoro-4-hydroxyphenyl)-1H-indazol-3-yl)-6,7-dihydro-1H-imidazo[4,5-c]pyridin-5(4H)-yl)(5-((3aR,6aS)-5-methylhexahydropyrrolo[3,4-c]pyrrol-2(1H)-yl)pyrazin-2-yl)methanone]: half-maximal inhibition in data set [1] (IC50) required 15.2 nM. The “% viability at 1 μg/mL” value in data set [2] stood at 18%.

As to `CCc1cc(O)c(F)cc1-c1ccc2c(-c3nc4c([nH]3)CCN(C(=O)c3cnc(N(C)CCN(C)C(C)=O)cn3)C4)n[nH]c2c1` [Example 2(n), N-(2-((5-(2-(6-(2-ethyl-5-fluoro-4-hydroxyphenyl)-1H-indazol-3-yl)-4,5,6,7-tetrahydro-1H-imidazo[4,5-c]pyridine-5-carbonyl)pyrazin-2-yl)(methy)amino)ethyl)-N-methylacetamide], it took 29.2 nM to reach half-maximal inhibition in data set [1] (IC50). Moreover, the “% viability at 1 μg/mL” value in data set [2] was 87%.

The values above are taken from patent US10851097B2, “4,5,6,7-tetrahydro-1H-imidazo[4,5-c]pyridine and 1,4,5,6,7,8-hexahydroimidazo[4,5-d]azepine derivatives as janus kinase inhibitors” (Topivert Pharma Limited, priority 2015, dated 2020).
